Paper PMC11898701, “Evaluating Therapeutic Efficacy of the Vascular Disrupting Agent OXi8007 Against Kidney Cancer in Mice” (Cancers, 2025)
Where two headings read alike, the source gives them in different places. Marks after values point to notes of the source that are not given here. Values belong to the molecule of their own block, whether it stands above or below them.

Assays:
[1] = Pharmacokinetic study in Renca-luc tumor-bearing BALB/c mice; format: in vivo, mouse; settings: for Tmax: read-out: Tmax (converted)
Protocol: Plasma and tissues were harvested at various time points (20 min to 16 h) from Renca-luc tumor-bearing BALB/c male mice following the administration of OXi8007 IP. Mice treated with 250 mg/kg were sacrificed at 20 min (n = 3), 1 h (n = 4), 2 h (n = 4), 4 h (n = 4), 8 h (n = 4), and 16 h (n = 4). Mice were anesthetized, exsanguinated, the tissues were blotted, and then they were weighed and frozen in liquid nitrogen. Homogenized plasma and tissue samples were extracted with acetonitrile with a bead mill; internal standard (CA4 or tri-labeled ^13C-OXi8006) was added to each sample to reach a final concentration of 10 ppb. Samples were centrifuged twice to remove precipitated proteins (16,260× g for 10 min at 4 °C). Clear supernatant was transferred into MS vials, and formic acid was added to a final concentration of 0.1% for LC-MS analysis. […] Mobile phase A consisted of 0.1% v/v formic acid in water, and mobile phase B was acetonitrile, which was mixed by the binary pump with an elution gradient at a flow rate of 0.6 mL/min. Data were analyzed using Xcalibur 4.6 software based on exact masses, and Phoenix WinNonlin 8.5.0 software was used to determine the pharmacokinetic parameters based on a non-compartmental model.

Renca-luc cells = assay: Renca-luc sulforhodamine B (SRB) assay, cell growth inhibition; format: cell-based; settings: Mus musculus; Renca-luc cells, SRB, 48 h treatment; read-out: IC50
Protocol: (§1) In two independent trials of Renca and Renca-luc cells were plated in triplicate at 8000 cells/well into 96-well plates and incubated for 24 h at 37 °C in a humidified incubator with 5% CO2 followed by a 48 h treatment period at ten-fold dilutions of the drug.

Renca cells = assay: Renca sulforhodamine B (SRB) assay, cell growth inhibition; format: cell-based; settings: Mus musculus; Renca cells, SRB, 48 h treatment; read-out: IC50
Protocol: as §1

[2] = Blood pressure assessment (CODA system); format: in vivo, mouse
Protocol: Blood pressure was measured using a CODA system (Kent Scientific, Torrington, CT, USA) on 5 adult male BALB/c mice. Mice were anesthetized with 2% isoflurane in oxygen at 1 dm^3/min and placed on the CODA IR heating pad with a feedback rectal temperature probe and nosecone to maintain anesthesia. An occlusion cuff and VPR cuff were placed on the tail. The baseline measurement was recorded over 30 min, then OXi8007 (250 mg/kg or 325 mg/kg) was administered IP and the blood pressure measurement resumed for 45 min. As positive and negative controls, hydralazine (1 mg/kg) or saline, respectively, were injected IP.

[3] = male, BALB/c, mouse, ip, glucuronide metabolite, brain, after OXi8007 250 mg/kg
[4] = male, BALB/c, mouse, ip, glucuronide metabolite, heart, after OXi8007 250 mg/kg
[5] = male, BALB/c, mouse, ip, glucuronide metabolite, left kidney, after OXi8007 250 mg/kg
[6] = male, BALB/c, mouse, ip, glucuronide metabolite, liver, after OXi8007 250 mg/kg
[7] = male, BALB/c, mouse, ip, glucuronide metabolite, lungs, after OXi8007 250 mg/kg
[8] = male, BALB/c, mouse, ip, glucuronide metabolite, plasma, after OXi8007 250 mg/kg
[9] = male, BALB/c, mouse, ip, glucuronide metabolite, spleen, after OXi8007 250 mg/kg
[10] = male, BALB/c, mouse, ip, glucuronide metabolite, tumor, after OXi8007 250 mg/kg
[11] = male, BALB/c, mouse, in vivo, ip, 250 mg/kg, brain, after OXi8007 250 mg/kg IP
[12] = male, BALB/c, mouse, in vivo, ip, 250 mg/kg, heart, after OXi8007 250 mg/kg IP
[13] = male, BALB/c, mouse, in vivo, ip, 250 mg/kg, left kidney, after OXi8007 250 mg/kg IP
[14] = male, BALB/c, mouse, in vivo, ip, 250 mg/kg, liver, after OXi8007 250 mg/kg IP
[15] = male, BALB/c, mouse, in vivo, ip, 250 mg/kg, lungs, after OXi8007 250 mg/kg IP
[16] = male, BALB/c, mouse, in vivo, ip, 250 mg/kg, plasma, after OXi8007 250 mg/kg IP
[17] = male, BALB/c, mouse, in vivo, ip, 250 mg/kg, spleen, after OXi8007 250 mg/kg IP
[18] = male, BALB/c, mouse, in vivo, ip, 250 mg/kg, tumor and right kidney, after OXi8007 250 mg/kg IP

Cmax ([1]; glucuronide metabolite, brain, counts per tissue sample (40 mg), after OXi8007 250 mg/kg): 0.95 counts × 10^−6
AUC ([1]; glucuronide metabolite, brain, after OXi8007 250 mg/kg): 4.13 h × counts × 10^−6
Cmax ([1]; glucuronide metabolite, heart, counts per tissue sample (40 mg), after OXi8007 250 mg/kg): 9.8 counts × 10^−6
AUC ([1]; glucuronide metabolite, heart, after OXi8007 250 mg/kg): 24.52 h × counts × 10^−6
Cmax ([1]; glucuronide metabolite, left kidney, counts per tissue sample (40 mg), after OXi8007 250 mg/kg): 87.2 counts × 10^−6
AUC ([1]; glucuronide metabolite, left kidney, after OXi8007 250 mg/kg): 180.6 h × counts × 10^−6
Cmax ([1]; glucuronide metabolite, liver, counts per tissue sample (40 mg), after OXi8007 250 mg/kg): 28.23 counts × 10^−6
AUC ([1]; glucuronide metabolite, liver, after OXi8007 250 mg/kg): 128.7 h × counts × 10^−6
Cmax ([1]; glucuronide metabolite, lungs, counts per tissue sample (40 mg), after OXi8007 250 mg/kg): 20.87 counts × 10^−6
AUC ([1]; glucuronide metabolite, lungs, after OXi8007 250 mg/kg): 69.33 h × counts × 10^−6
Cmax ([1]; glucuronide metabolite, plasma, counts per mL, no precise calibration, after OXi8007 250 mg/kg): 1266 counts × 10^−6
AUC ([1]; glucuronide metabolite, plasma, no precise calibration, after OXi8007 250 mg/kg): 3490 h × counts × 10^−6
Cmax ([1]; glucuronide metabolite, spleen, counts per tissue sample (40 mg), after OXi8007 250 mg/kg): 6.33 counts × 10^−6
AUC ([1]; glucuronide metabolite, spleen, after OXi8007 250 mg/kg): 18.39 h × counts × 10^−6
Cmax ([1]; glucuronide metabolite, tumor, counts per tissue sample (40 mg), after OXi8007 250 mg/kg): 11.65 counts × 10^−6
AUC ([1]; glucuronide metabolite, tumor, after OXi8007 250 mg/kg): 118.22 h × counts × 10^−6
half-life [1, 3]: 1.15 h
Tmax [1, 3]: 1 h
half-life [1, 4]: 1.61 h
Tmax [1, 4]: 1 h
half-life [1, 5]: 3.75 h
Tmax [1, 5]: 1 h
half-life [1, 6]: 3.37 h
Tmax [1, 6]: 1 h
half-life [1, 7]: 2.05 h
Tmax [1, 7]: 1 h
half-life [1, 8]: 1.95 h
Tmax [1, 8]: 1 h
half-life [1, 9]: 2.2 h
Tmax [1, 9]: 1 h
half-life [1, 10]: 5.87 h
Tmax [1, 10]: 4 h
Compound: COc1ccc2c(C(=O)c3cc(OC)c(OC)c(OC)c3)c(-c3ccc(OC)c(O[C@@H]4O[C@H](C(=O)O)[C@@H](O)[C@H](O)[C@H]4O)c3)[nH]c2c1 [OXi8006 Glucuronide]

Compound: COc1ccc(/C=C\c2cc(OC)c(OC)c(OC)c2)cc1O [CA4, combretastatin A-4, reference compound]
IC50 (Renca-luc cells): 109 ± 23 nM
IC50 (Renca cells): 48 ± 2 nM

Compound: COc1ccc2c(C(=O)c3cc(OC)c(OC)c(OC)c3)c(-c3ccc(OC)c(O)c3)[nH]c2c1 [OXi8006]
AUC ([1]; brain, after OXi8007 250 mg/kg IP): 0.54 ng·h/mg
AUC ([1]; heart, after OXi8007 250 mg/kg IP): 9.04 ng·h/mg
AUC ([1]; left kidney, after OXi8007 250 mg/kg IP): 8.72 ng·h/mg
AUC ([1]; liver, after OXi8007 250 mg/kg IP): 18.19 ng·h/mg
AUC ([1]; lungs, after OXi8007 250 mg/kg IP): 9.45 ng·h/mg
half-life [1, 11]: 1.71 h
Cmax ([1]; male, BALB/c, mouse, in vivo, ip, 250 mg/kg, brain, after OXi8007 250 mg/kg IP, read-out: Cmax): 220 ng/g
Tmax [1, 11]: 0.333 h
half-life [1, 12]: 2.02 h
Cmax ([1]; male, BALB/c, mouse, in vivo, ip, 250 mg/kg, heart, after OXi8007 250 mg/kg IP, read-out: Cmax): 5310 ng/g
Tmax [1, 12]: 0.333 h
half-life [1, 13]: 1.73 h
Cmax ([1]; male, BALB/c, mouse, in vivo, ip, 250 mg/kg, left kidney, after OXi8007 250 mg/kg IP, read-out: Cmax): 5860 ng/g
Tmax [1, 13]: 0.333 h
half-life [1, 14]: 2.25 h
Cmax ([1]; male, BALB/c, mouse, in vivo, ip, 250 mg/kg, liver, after OXi8007 250 mg/kg IP, read-out: Cmax): 9160 ng/g
Tmax [1, 14]: 0.333 h
half-life [1, 15]: 2.56 h
Cmax ([1]; male, BALB/c, mouse, in vivo, ip, 250 mg/kg, lungs, after OXi8007 250 mg/kg IP, read-out: Cmax): 4180 ng/g
Tmax [1, 15]: 0.333 h
half-life [1, 16]: 1.98 h
half-life ([1]; male, BALB/c, mouse, in vivo, ip, 250 mg/kg, plasma, after OXi8007 250 mg/kg IP, Renca-luc tumor-bearing BALB/c mice): 1.99 h
Cmax ([1]; male, BALB/c, mouse, in vivo, ip, 250 mg/kg, plasma, after OXi8007 250 mg/kg IP, read-out: Cmax): 29000 ng/mL
Tmax [1, 16]: 0.333 h
half-life [1, 17]: 1.72 h
Cmax ([1]; male, BALB/c, mouse, in vivo, ip, 250 mg/kg, spleen, after OXi8007 250 mg/kg IP, read-out: Cmax): 4450 ng/g
Tmax [1, 17]: 0.333 h
half-life [1, 18]: 4.23 h
Cmax ([1]; male, BALB/c, mouse, in vivo, ip, 250 mg/kg, tumor and right kidney, after OXi8007 250 mg/kg IP, read-out: Cmax): 2390 ng/g
Tmax [1, 18]: 1 h
AUC ([1]; plasma, after OXi8007 250 mg/kg IP, zero to last quantifiable concentration): 47 ^# h × ng/µL
AUC ([1]; spleen, after OXi8007 250 mg/kg IP): 9.88 ng·h/mg
AUC ([1]; tumor and right kidney, after OXi8007 250 mg/kg IP): 10.24 ng·h/mg

Compound: NNc1nncc2ccccc12 [hydralazine, reference compound]
Hypotension (Δ BP) ([2]; 1 mg/kg): ~ 35 mmHg
Drop in diastolic blood pressure (Δ) ([2]; 1 mg/kg IP): 31 mmHg
Drop in mean blood pressure (Δ) ([2]; 1 mg/kg IP): 34 mmHg
Drop in systolic blood pressure (Δ) ([2]; 1 mg/kg IP): 40 mmHg
Drop in blood pressure ([2]; 1 mg/kg IP, positive control): about 30%
